Experimental data: ChEMBL document CHEMBL4368883, “Identification of the first enantiopure Rac1-Tiam1 protein-protein interaction inhibitor and its optimized synthesis via phosphine free remote group directed hydroarylation” (Medchemcomm, 2019)
Activity calls are given as the source filed them. The rule behind the calls is not given here.

Legend:
[1] = biological target: T1, Ras-related C3 botulinum toxin substrate 1/T-lymphoma invasion and metastasis-inducing protein 1 (Homo sapiens) (UniProt P63000+Q13009); experiment: Inhibition of Rac1-Tiam1 protein-protein interaction in human A617 cells assessed as reduction in intracellular Rac1-GTP levels at 10 uM after 4 hrs by G-LISA assay relative to control; format: cell-based
[2] = biological target: T1, Ras-related C3 botulinum toxin substrate 1/T-lymphoma invasion and metastasis-inducing protein 1 (Homo sapiens); experiment: Inhibition of Rac1-Tiam1 protein-protein interaction in human A617 cells assessed as reduction in intracellular Rac1-GTP levels at 1 to 10 uM after 4 hrs by G-LISA assay; format: cell-based

## CCOC(=O)C1(N)C2CC(CC2c2cccc(Nc3ccc(N)cc3)c2)C1Sc1ccccc1 (racemic)
[1]
  inhibition: 17.2%
[2]
  inhibition: inactive
